Results on 41 compounds are retold here after ChEMBL document CHEMBL1944510, “Potent galloyl-based selective modulators targeting multidrug resistance associated protein 1 and P-glycoprotein” (J Med Chem, 2012).

Each structure is given as a SMILES string.

The target of one data set is ATP-dependent translocase ABCB1 (Homo sapiens, UniProt P08183). Put plainly: Inhibition of human MDR1 expressed in MDCK cells assessed as calcein AM accumulation after 30 mins by fluorescence assay. The class given is cell-based. The following applies: read-out: IC50.
Sequence of ATP-dependent translocase ABCB1 (P08183 whole entry): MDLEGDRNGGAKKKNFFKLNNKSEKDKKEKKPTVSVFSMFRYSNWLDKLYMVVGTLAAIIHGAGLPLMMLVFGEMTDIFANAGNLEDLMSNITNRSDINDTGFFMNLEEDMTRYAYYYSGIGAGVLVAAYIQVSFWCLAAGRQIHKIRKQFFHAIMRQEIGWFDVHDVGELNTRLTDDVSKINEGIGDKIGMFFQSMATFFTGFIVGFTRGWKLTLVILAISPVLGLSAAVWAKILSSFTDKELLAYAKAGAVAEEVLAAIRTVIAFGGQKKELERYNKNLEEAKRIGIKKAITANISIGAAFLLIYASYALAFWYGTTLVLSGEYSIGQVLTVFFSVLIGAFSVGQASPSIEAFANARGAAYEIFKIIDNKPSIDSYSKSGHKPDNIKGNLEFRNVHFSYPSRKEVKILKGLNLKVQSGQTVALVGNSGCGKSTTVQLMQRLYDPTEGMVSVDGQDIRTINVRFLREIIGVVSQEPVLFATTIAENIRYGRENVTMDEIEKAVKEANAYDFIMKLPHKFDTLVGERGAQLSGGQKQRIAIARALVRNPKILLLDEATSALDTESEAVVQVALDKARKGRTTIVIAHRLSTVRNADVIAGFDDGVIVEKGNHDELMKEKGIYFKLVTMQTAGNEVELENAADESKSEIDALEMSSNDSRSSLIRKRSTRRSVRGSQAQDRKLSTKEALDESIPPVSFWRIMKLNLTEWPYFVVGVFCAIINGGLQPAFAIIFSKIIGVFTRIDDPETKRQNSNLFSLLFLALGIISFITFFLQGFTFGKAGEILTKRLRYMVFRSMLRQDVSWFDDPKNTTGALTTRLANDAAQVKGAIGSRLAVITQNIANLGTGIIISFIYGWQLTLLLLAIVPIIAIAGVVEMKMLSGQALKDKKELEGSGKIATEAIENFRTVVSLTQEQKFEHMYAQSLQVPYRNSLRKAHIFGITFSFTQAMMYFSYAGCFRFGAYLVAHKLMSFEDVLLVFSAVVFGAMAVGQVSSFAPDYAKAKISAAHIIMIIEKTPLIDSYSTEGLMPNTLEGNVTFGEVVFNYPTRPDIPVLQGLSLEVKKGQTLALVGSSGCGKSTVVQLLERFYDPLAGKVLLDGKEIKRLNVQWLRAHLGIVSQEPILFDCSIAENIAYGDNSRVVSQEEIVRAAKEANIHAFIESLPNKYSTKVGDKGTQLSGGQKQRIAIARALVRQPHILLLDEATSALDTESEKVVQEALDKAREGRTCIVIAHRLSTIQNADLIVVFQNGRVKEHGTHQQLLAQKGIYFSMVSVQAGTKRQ
For `COc1cc(C(=O)Nc2ccc(Br)cc2)cc(OC)c1OC`, the IC50 was 20 µM.

With `COc1cc(C(=O)Nc2ccc(-c3ccccc3)cc2)cc(OC)c1OC`, the IC50 is over 100 µM.

Take `COc1cc(C(=O)Nc2ccc(-c3ccccc3)cc2N)cc(OC)c1OC`: the IC50 is 7.2 µM.

For the compound `COc1cc(C(=O)Nc2ccc(-c3ccccc3)cc2F)cc(OC)c1OC`, the IC50 is 1.4 µM.

Regarding `COc1cc(C(=O)Nc2ccc(-c3ccccc3)cc2[N+](=O)[O-])cc(OC)c1OC`, the IC50 is over 100 µM.

On to `COc1cc(C(=O)Nc2ccc(-c3ccccc3)cc2NC(C)=O)cc(OC)c1OC`, for which the IC50 is 1.9 µM.

`COc1cc(C(=O)Nc2ccc(Br)cc2[N+](=O)[O-])cc(OC)c1OC`: the IC50 was over 100 µM.

Consider `COc1ccc(NC(=O)c2cc(OC)c(OC)c(OC)c2)c([N+](=O)[O-])c1`, for which the IC50 is over 100 µM.

`COc1cc(C(=O)Nc2cc(-c3ccccc3)ccc2[N+](=O)[O-])cc(OC)c1OC`: the IC50 was 0.57 µM.

On to `COc1cc(C(=O)Nc2ccc(-c3cccs3)cc2[N+](=O)[O-])cc(OC)c1OC`, for which the IC50 was 17.3 µM.

Turning to `COc1cc(C(=O)Nc2ccc(-c3cccnc3)cc2[N+](=O)[O-])cc(OC)c1OC`, the IC50 was 6.8 µM.

For `COc1cc(C(=O)Nc2ccc(-c3ccc4c(c3)OCO4)cc2[N+](=O)[O-])cc(OC)c1OC`, the IC50 is 0.2 µM.

In the case of `COc1cc(C(=O)Nc2ccc(-c3cccc(C(C)=O)c3)cc2[N+](=O)[O-])cc(OC)c1OC`, the IC50 was 0.6 µM.

As to `COc1cc(C(=O)Nc2ccc(-c3cc(OC)c(OC)c(OC)c3)cc2[N+](=O)[O-])cc(OC)c1OC`, the IC50 was 24.3 µM.

For the compound `COc1cc(C(=O)Nc2ccc(-c3cccc([N+](=O)[O-])c3)cc2[N+](=O)[O-])cc(OC)c1OC`, the IC50 was 0.4 µM.

As to `COc1cc(C(=O)Nc2ccc(-c3ccc[n+](C)c3)cc2[N+](=O)[O-])cc(OC)c1OC`, the IC50 was 34 µM.

Take `COc1ccc(C(=O)Nc2ccc(-c3ccccc3)cc2[N+](=O)[O-])cc1OC`: the IC50 was 1.3 µM.

Take `COc1cc(OC)cc(C(=O)Nc2ccc(-c3ccccc3)cc2[N+](=O)[O-])c1`: the IC50 was 6.6 µM.

As for `COc1cc(CNc2ccc(-c3ccccc3)cc2[N+](=O)[O-])cc(OC)c1OC`, the IC50 is 1.5 µM.

With `COc1cc(NC(=O)c2ccc(-c3ccccc3)cc2[N+](=O)[O-])cc(OC)c1OC`, the IC50 is 2 µM.

In the case of `O=C(Nc1ccc(Br)cc1[N+](=O)[O-])c1cc(O)c(O)c(O)c1`, the IC50 was over 100 µM.

In the case of `O=C(Nc1ccc(-c2ccccc2)cc1[N+](=O)[O-])c1cc(O)c(O)c(O)c1`, the IC50 was over 100 µM.

On to `O=C(Nc1ccc(-c2ccccc2)cc1[N+](=O)[O-])c1cc(O)cc(O)c1`, for which the IC50 was 72 µM.

Consider `COc1cc(C(=O)Nc2ccc(Br)cc2[N+](=O)[O-])cc(O)c1O`, for which the IC50 is 38.4 µM.

For `COc1ccc(NC(=O)c2cc(O)c(O)c(OC)c2)c([N+](=O)[O-])c1`, the IC50 is 65 µM.

In the case of `COc1cc(C(=O)Nc2cc(-c3ccccc3)ccc2[N+](=O)[O-])cc(O)c1O`, the IC50 is 40.2 µM.

As to `COc1cc(C(=O)Nc2ccc(-c3ccccc3)cc2[N+](=O)[O-])cc(O)c1O`, the IC50 was 67 µM.

Regarding `COc1cc(C(=O)Nc2ccc(-c3cc(F)cc(F)c3)cc2[N+](=O)[O-])cc(O)c1O`, the IC50 is 16.8 µM.

Consider `COc1cc(C(=O)Nc2ccc(-c3ccc(O)c(O)c3)cc2[N+](=O)[O-])cc(O)c1O`, for which the IC50 was over 100 µM.

As for `COc1cc(C(=O)Nc2ccc(-c3cccc(C(C)=O)c3)cc2[N+](=O)[O-])cc(O)c1O`, the IC50 was 9.1 µM.

For the compound `COc1cc(C(=O)Nc2ccc(-c3cc(O)c(O)c(OC)c3)cc2[N+](=O)[O-])cc(O)c1O`, the IC50 is 3.1 µM.

For the compound `COc1cc(C(=O)Nc2ccc(-c3cccc([N+](=O)[O-])c3)cc2)cc(O)c1O`, the IC50 is 32.5 µM.

Regarding `COc1cc(C(=O)Nc2ccc(-c3ccccc3)cc2)cc(O)c1O`, the IC50 was over 100 µM.

Take `COc1cc(C(=O)Nc2ccc(-c3ccccc3)cc2N)cc(O)c1O`: the IC50 is over 100 µM.

In the case of `COc1cc(C(=O)Nc2ccc(-c3ccccc3)cc2F)cc(O)c1O`, the IC50 is 14.1 µM.

For `COc1cc(C(=O)Nc2ccc(-c3ccccc3)cc2NC(C)=O)cc(O)c1O`, the IC50 was over 100 µM.

Regarding `COc1ccc(C(=O)Nc2ccc(-c3ccccc3)cc2[N+](=O)[O-])cc1O`, the IC50 is 3.5 µM.

Turning to `COc1cc(CNc2ccc(-c3ccccc3)cc2[N+](=O)[O-])cc(O)c1O`, the IC50 was 72 µM.

As to `COc1cc(NC(=O)c2ccc(-c3ccccc3)cc2[N+](=O)[O-])cc(O)c1O`, the IC50 was over 100 µM.

Consider `COC1=CC(C(=O)Nc2ccc(-c3ccccc3)cc2[N+](=O)[O-])=CC(=O)C1=O`, for which the IC50 was over 100 µM.

`COc1ccc(CCN(C)CCCC(C#N)(c2ccc(O)c(O)c2)C(C)C)cc1OC` (racemic): the IC50 is 31.7 µM.

The same data set, now with this note: read-out: pIC50 (converted).
Consider `COc1cc(C(=O)Nc2cc(-c3ccccc3)ccc2[N+](=O)[O-])cc(OC)c1OC`, for which the IC50 was 0.57 µM.

As for `COc1cc(C(=O)Nc2ccc(-c3ccc4c(c3)OCO4)cc2[N+](=O)[O-])cc(OC)c1OC`, the IC50 is 0.2 µM.

For the compound `COc1cc(C(=O)Nc2ccc(-c3cccc(C(C)=O)c3)cc2[N+](=O)[O-])cc(OC)c1OC`, the IC50 was 0.6 µM.

In the case of `COc1cc(C(=O)Nc2ccc(-c3cc(OC)c(OC)c(OC)c3)cc2[N+](=O)[O-])cc(OC)c1OC`, the IC50 was 24.3 µM.

As to `COc1cc(C(=O)Nc2ccc(-c3cccc([N+](=O)[O-])c3)cc2[N+](=O)[O-])cc(OC)c1OC`, the IC50 was over 1 µM.

System in the next data set: not listed separately
Briefly: Chemical stability of the compound at 1 to 100 uM after 1 hr by ESI-MS analysis.
Details: not given
Type of data set: physicochemical.
`COc1cc(C(=O)Nc2ccc(-c3ccccc3)cc2[N+](=O)[O-])cc(OC)c1OC`: the Stability entry is on record as “Stable”.

Turning to `O=C(Nc1ccc(-c2ccccc2)cc1[N+](=O)[O-])c1cc(O)c(O)c(O)c1`, the Stability result is recorded as “Stable”.

On to `COc1cc(C(=O)Nc2ccc(-c3ccccc3)cc2[N+](=O)[O-])cc(O)c1O`, for which the Stability result is “Stable”.
